Measured values from PMC12472597, “Pan-Amyloid Reactive Peptides p5+14 and p5R Exhibit Specific Charge-Dependent Binding to Glycosaminoglycans” (Pharmaceuticals, 2025).
Entries after “also recorded” stand apart in the source; their conditions may differ. One block for each compound: values may come before it. No end group written: not given here.

What was measured:
[1] = cited from earlier work
Description: The concept of pan-amyloid reactive agents is not a new one. […] The binding sites are recurring with defined periodicity, which results in Congo red birefringence when stained amyloid is viewed under cross polarized illumination,a and a red shift in the emission maximum and increase in the quantum yield when thiofl ...

[2] = clinical studies (NCT02603172); cited from earlier work
Experimental: The impact of accessory proteins in amyloid deposits remains unclear; however, some components have been evaluated extensively. Serum amyloid P component, for example, was thought to stabilize the amyloid pathology and render it resistant to proteolysis and immunological clearance. This hypothesis was tested using a small molecule drug (miridesap) that crosslinks SAP, thereby clearing it from amyloid deposits, potentially leading to their clearance. […] This was ...

[3] = GAG microarray binding (47 GAGs); settings: biotinylated peptide
Experimental: To assess the binding selectivity of biotinylated p5+14 and p5R peptides, we used a commercial glycosaminoglycan (GAG) binding microarray (ZBiotech, CO, USA), which contains 16 subarrays each consisting of 47 differing GAGs (varying lengths, charges, and composition (Supplementary Figure S1)) plus internal controls. Increasing concentrations of each peptide were evaluated on the subarrays. The GAG arrays consisted of exemplar hyaluronic acid (HA), heparin, chondroitin sulfate A/C (CS-AC), chondroitin sulfate D (CS-D), dermatan sulfate (DS), heparan sulfate (HS with low to intermediate sulfation levels), heparan sulfate (HS with high sulfation levels), and […] (KS). Background corrected binding of peptides p5+14 and p5R, at 2 µg/mL, to each GAG is shown in Figure 4A,B (additional concentrations are shown in Supplementary Figure S2). […] For heparin and highly sulfated HS, the binding intensity closely paralleled the total negative charge for each GAG (Figure 4C).
Glycosaminoglycan (GAG) microarray binding studies were performed by Z Biotech (Z Biotech, LLC, Aurora, CO, USA). Briefly, microarrays were laid out in a 16-subarray arrangement with 47 GAG or 24 heparan sulfate (HS) binding targets per subarray. Spotted arrays were blocked at room temperature (RT) for 30 min with Glycan Array Blocking Buffer (Z Biotech, LLC, Aurora, CO, USA) before being washed. Biotinylated peptides were diluted in blocking buffer + 1% bovine serum albumin to final concentrations of 50, 10, 2, 0.4, and 0.08 µg/mL and the solutions added to the arrays for 1 h at RT. […] The fluorescence emission was quantified by scanning at 532 nm and evaluated using Mapix microarray software (Innopsys, Carbonne, France). […]
(§1) Data visualization, statistical analysis, and correlations were performed using GraphPad Prism v 9.4.1 or later. […] Apparent affinities (Ec50) of peptides to array substrates were calculated using sigmoidal 4PL curve fitting to calculate the Ec50 in µg/mL, which was converted to molarity using the appropriate peptide molecular weight.

[4] = GAG array apparent EC50, heparin (GAG16); assay type: binding; settings: biotinylated peptide, 1 h RT, n = 4
Description: (§2) One exemplar GAG from the groups of heparin, HS, CS-AC, and CS-D was chosen to assess the Ec50 (concentration at the midpoint of binding). Bound peptide fluorescence was plotted against the concentration of peptide and a sigmoidal 4PL binding curve fit to the data (Figure 6). For GAGs with high peptide binding (heparin, HS, and highly sulfated CS-D), Ec50 calculations could be performed for both biotinylated p5+14 and p5R (Figure 6A,C,D). […] The differential binding potency, despite the shared selectivity, is likely due to the higher net charge on p5+14 (+12) compared with p5R (+8).
(§3) Glycosaminoglycan (GAG) microarray binding studies were performed by Z Biotech (Z Biotech, LLC, Aurora, CO, USA). Briefly, microarrays were laid out in a 16-subarray arrangement with 47 GAG or 24 heparan sulfate (HS) binding targets per subarray. […] The fluorescence emission was quantified by scanning at 532 nm and evaluated using Mapix microarray software (Innopsys, Carbonne, France). […]
as §1

[5] = GAG array apparent EC50, CS-AC (GAG22); assay type: binding; settings: biotinylated peptide, n = 4; for EC50: 1 h RT, 4PL fit
Description: as §2
(§4) Glycosaminoglycan (GAG) microarray binding studies were performed by Z Biotech (Z Biotech, LLC, Aurora, CO, USA). Briefly, microarrays were laid out in a 16-subarray arrangement with 47 GAG or 24 heparan sulfate (HS) binding targets per subarray. Spotted arrays were blocked at room temperature (RT) for 30 min with Glycan Array Blocking Buffer (Z Biotech, LLC, Aurora, CO, USA) before being washed. Biotinylated peptides were diluted in blocking buffer + 1% bovine serum albumin to final concentrations of 50, 10, 2, 0.4, and 0.08 µg/mL and the solutions added to the arrays for 1 h at RT. The arrays were then washed again and streptavidin-Cy3 (0.2 µg/mL) added, followed by a 1-h incubation. The fluorescence emission was quantified by scanning at 532 nm and evaluated using Mapix microarray software (Innopsys, Carbonne, France). Background control data were subtracted from binding signals before the data were averaged.
(§5) Data visualization, statistical analysis, and correlations were performed using GraphPad Prism v 9.4.1 or later. Correlations of peptide binding to microarray substrates were performed using Pearson’s correlations. Apparent affinities (Ec50) of peptides to array substrates were calculated using sigmoidal 4PL curve fitting to calculate the Ec50 in µg/mL, which was converted to molarity using the appropriate peptide molecular weight.

[6] = GAG array apparent EC50, CS-D (GAG28); assay type: binding; settings: biotinylated peptide; for EC50: 1 h RT, 4PL fit, n = 4
Description: as §2, §4, §5

[7] = GAG array apparent EC50, HS (GAG46); assay type: binding; settings: biotinylated peptide, highly sulfated HS, 4PL fit, n = 4
Description: as §2, §3, §1

[8] = Heparan sulfate microarray binding (24 HS); settings: biotinylated peptide; 0.4, 2, 10 µg/mL; n = 6
Experimental: This array comprised 24 structurally unique synthetic HS domains that varied in length, net charge, and charge density (Supplementary Figure S3). The binding of biotinylated peptides p5+14 (Figure 7A) and p5R (Figure 7B) to the HS array was performed as above, using increasing concentrations of peptide. The intensity of binding for both peptides, based on the fluorescence intensity, was closely related to the total charge (total sulfations) of the ligand (Figure 7, shown in red).
as §3, with “subarray. Spotted arrays were blocked at room temperature (RT) for 30 min with Glycan Array Blocking Buffer (Z Biotech, LLC, Aurora, CO, USA) before being washed.” for “subarray.”
as §1

[9] = HS array apparent Ec50, HS13; assay type: binding; settings: biotinylated peptide; increasing peptide concentration; n = 6
Experimental: (§6) Biotinylated peptide binding to four of the HS glycans in the array were analyzed further to assess the estimated binding potency (Figure 9). […] The HS glycans used in this binding analysis contained fewer saccharide units and less total charge compared with that shown in Figure 6D, which may explain the difference in the estimated potency data.
as §3, with “subarray. Spotted arrays were blocked at room temperature (RT) for 30 min with Glycan Array Blocking Buffer (Z Biotech, LLC, Aurora, CO, USA) before being washed.” for “subarray.”
as §1

[10] = HS array apparent Ec50, HS16; assay type: binding; settings: biotinylated peptide, 4PL fit, n = 6
Experimental: as §6
as §3, with “subarray. Spotted arrays were blocked at room temperature (RT) for 30 min with Glycan Array Blocking Buffer (Z Biotech, LLC, Aurora, CO, USA) before being washed.” for “subarray.”
as §1

[11] = HS array apparent Ec50, HS22; assay type: binding; settings: biotinylated peptide, 4PL fit, n = 6
Experimental: as §6
as §3, with “subarray. Spotted arrays were blocked at room temperature (RT) for 30 min with Glycan Array Blocking Buffer (Z Biotech, LLC, Aurora, CO, USA) before being washed.” for “subarray.”
as §1

[12] = HS array apparent Ec50, HS24; assay type: binding; settings: biotinylated peptide, 4PL fit, n = 6
Experimental: as §6
as §3, with “subarray. Spotted arrays were blocked at room temperature (RT) for 30 min with Glycan Array Blocking Buffer (Z Biotech, LLC, Aurora, CO, USA) before being washed.” for “subarray.”
as §1

[13] = Circular dichroism secondary structure; assay type: physicochemical
Experimental: Peptide secondary structures were analyzed by circular dichroism using an Olis RSM 1000 (On-line Instrument Systems, Inc., Bogart, GA, USA). Each study consisted of three replicates that were averaged and the dilution/background spectra subtracted. Non-biotinylated peptides were diluted to 0.05 mg/mL in phosphate buffered saline (PBS). For experiments involving the addition of enoxaparin (Amphastar Pharmaceuticals Inc., Rancho Cucamonga, CA., USA), enoxaparin was added to diluted peptide in PBS to reach a final concentration of 0–66.7 µg/mL. For experiments involving the addition of 2,2,2-trifluoroethanol (TFE) (Thermo Fisher Scientific, Waltham, MA, USA), TFE was added to diluted peptide in PBS to reach a final concentration of 0–40%.

[14] = PET/CT imaging of patients with systemic amyloidosis; assay type: in vivo, human; settings: PET/CT at 5 h post injection
Experimental: Patients were imaged with p5+14 as part of the first-in-human, open label, Phase 1 study (NCT03678259). Synthesis of ^124I-labeled p5+14 has previously been reported. Briefly, lyophilized human grade peptide (Attralus, Inc., Naples, FL, USA) was radiolabeled on the day of use with iodine-124 (3D Imaging, Little Rock, AR, USA) using iodogen as the oxidant. Subjects were administered a 2 mCi dose of I-124 (<2 mg of peptide) intravenously. PET/CT images were acquired from crown to thighs at 5 h post injection, using a Siemens Biograph PET/CT (Siemens Healthineers, Malvern, PA, USA) with 5 min bed positions for the PET and a low dose CT (120 kVp, 50 effective mAs).
Data were reconstructed using a 3-dimensional ordered subset expectation maximization algorithm with attenuation and prompt gamma corrections, a 168 × 168 image matrix, and an image resolution of ~8 mm full width at half maximum. CT reconstruction utilized a medium smoothing kernel and 4 mm reconstruction increments. Patient PET/CT images were generated using Inveon Research Workplace software (Ed. 4.2 [4.2.0.15]; Siemens Preclinical Solutions).

[15] = cited from earlier work; remark: listed apart in the source
Description: Both peptides consist of a repeating heptad structure with periodic lysine (p5+14; -XXKXXXK-) or arginine (p5R; -XXRXXXR-) amino acids. […] These peptides also avidly bind other highly negatively charged linear molecules such as heparin and hypersulfated HSPG, the latter of which is associated with amyloid deposits in vivo [18, 20, 21, 22].

[16] = array in blocking buffer + 1% BSA, 0.08-50 µg/mL, streptavidin-Cy3, 532 nm, read-out: Apparent EC50
[17] = converted from µg/mL using peptide molecular weight, read-out: Apparent EC50 (Molarity)
[18] = HS array in blocking buffer + 1% BSA, 1 h RT, streptavidin-Cy3, 532 nm, read-out: Apparent Ec50
[19] = converted from µg/mL using peptide molecular weight, read-out: Apparent Ec50 (Molarity)
[20] = initial spectrum, non-biotinylated peptide 0.05 mg/mL in PBS, n = 3

Compound: Nc1c(/N=N/c2ccc(-c3ccc(/N=N/c4cc(S(=O)(=O)O)c5ccccc5c4N)cc3)cc2)cc(S(=O)(=O)O)c2ccccc12 [Congo red]
Amyloid binding [1]: bind all types of amyloid but not in a specific way

Compound: O=C(O)[C@H]1CCCN1C(=O)CCCCC(=O)N1CCC[C@@H]1C(=O)O [miridesap]
Removal of amyloid in patients [2]: failed to promote the meaningful removal of amyloid in patients

Compound: Cc1ccc2c(c1)sc(-c1ccc(N(C)C)cc1)[n+]2C [thioflavin T]
Amyloid binding [1]: bind all types of amyloid but not in a specific way

Binding to GAGs that were not heparin or HS ([3]; 2 µg/mL, n = 4): very little binding
EC50 ([4]; array in blocking buffer + 1% BSA, 0.08-50 µg/mL, streptavidin-Cy3, 532 nm, sigmoidal 4PL fit, read-out: Apparent EC50): 1.2 µg/mL
EC50 ([4]; converted from µg/mL using peptide molecular weight, 4PL fit, read-out: Apparent EC50 (Molarity)): 251 nM
EC50 [5, 16]: 3.38 µg/mL
EC50 [5, 17]: 708 nM
Binding to CS-AC ([5]; fluorescence au vs peptide concentration): saturable binding
EC50 [6, 16]: 1.33 µg/mL
EC50 [6, 17]: 280 nM
EC50 ([7]; array in blocking buffer + 1% BSA, 0.08-50 µg/mL, 1 h RT, streptavidin-Cy3, 532 nm, read-out: Apparent EC50): 0.932 µg/mL
EC50 [7, 17]: 196 nM
Binding to HS13 [9]: did not reach saturation
EC50 [10, 18]: 0.668 µg/mL
EC50 [10, 19]: 140 nM
EC50 [11, 18]: 0.473 µg/mL
EC50 [11, 19]: 99.3 nM
EC50 [12, 18]: 0.448 µg/mL
EC50 [12, 19]: 94 nM
Secondary structure in solution ([13]; PBS pH 7.2): partially unfolded states in solution
Secondary structure with low molecular weight heparin ([13]; in PBS with enoxaparin): adopt an α-helical structure
CD large minimum [13, 20]: 208 nm
CD smaller minimum [13, 20]: 222 nm
Ratio of the CD minima with enoxaparin ([13]; non-biotinylated peptide 0.05 mg/mL in PBS, higher concentrations of enoxaparin (0-66.7 µg/mL), n = 3): ≥ 1
Ratio of the CD minima with TFE ([13]; non-biotinylated peptide 0.05 mg/mL in PBS, increasing TFE (0-40%), n = 3): ≥ 1
Compound: GGGYSKAQKAQAKQAKQAQKAQKAQAKQAKQAQKAQKAQAKQAKQ [p5+14, 45-residue polybasic lysine heptad-repeat peptide, net charge +12]
GAG binding selectivity ([3]; 2 µg/mL, background corrected fluorescence, n = 4): preferential binding to heparin and highly sulfated HS GAGs; also recorded: Little to no binding to HA, CS-AC, CS-D (with singular exception), DS, and KS
Affinity for heparin and HS immobilized in the arrays ([3]; compared with biotinylated p5R, GAG and HS arrays): higher affinity for both heparin and HS immobilized in the arrays
Reactivity with CS-D GAGs ([6]; GAG28 compared with GAG23-GAG27): abrupt intense reactivity of the peptides with GAG28, but none of the other CS GAGs (GAG23-GAG27)
HS binding pattern [8]: the binding to HS appeared to correlate precisely with the total charge of the HS
Organ uptake in patients ([14]; 2 mCi (<2 mg of peptide) i.v., patients with systemic amyloidosis): consistent with uptake in organs and tissues clinically known or suspected of amyloid deposition
Organ uptake in healthy subjects ([14]; 2 mCi i.v., healthy subjects): no pathologic uptake was observed

Compound: GGGYSRAQRAQARQARQAQRAQRAQARQARQ [p5R]
In vivo biodistribution vs basic fibroblast growth factor ([15]; ^125I-labeled): differed dramatically from that of the quintessential HSPG binding protein, basic fibroblast growth factor

Compound: bFGF: prototypical HS binding peptide [reference compound]
Binding in healthy tissues ([15]; healthy liver tissue and renal glomerulae): strong reactivity with healthy liver tissue and renal glomerulae

Compound: serum amyloid P-component: biological reagent that exhibits pan-amyloid reactivity
Amyloid binding [1]: exhibit pan-amyloid reactivity
